Molecular target: T1, CFTR (Homo sapiens, UniProt P13569, DEL508-508)
T1 construct: Primary CF airway epithelial cells were obtained from the UNC Cystic Fibrosis Tissue Procurement and Cell Culture Core; host or cells: primary CF airway epithelial cells, differentiated at the air-liquid interface
Assay: Equivalent current assay in primary CF airway epithelial cells (NAUC, combination with 1st site corrector FDL169 or VX-809)
Assay type: cell-based
Settings: 37° C., 24 h

[1] = test compound 1 μM in combination with 1st site corrector FDL169 (3 μM)
[2] = test compound 3 μM in combination with 1st site corrector FDL169 (3 μM)
[3] = test compound 3 μM in combination with 1st site corrector VX-809 (3 μM)
[4] = test compound 10 μM in combination with 1st site corrector VX-809 (3 μM)
[5] = test compound 10 μM in combination with 1st site corrector FDL169 (3 μM)
[6] = test compound 1 μM in combination with 1st site corrector VX-809 (3 μM)

T1 sequence (P13569 with tags, fused parts or gaps DEL508-508): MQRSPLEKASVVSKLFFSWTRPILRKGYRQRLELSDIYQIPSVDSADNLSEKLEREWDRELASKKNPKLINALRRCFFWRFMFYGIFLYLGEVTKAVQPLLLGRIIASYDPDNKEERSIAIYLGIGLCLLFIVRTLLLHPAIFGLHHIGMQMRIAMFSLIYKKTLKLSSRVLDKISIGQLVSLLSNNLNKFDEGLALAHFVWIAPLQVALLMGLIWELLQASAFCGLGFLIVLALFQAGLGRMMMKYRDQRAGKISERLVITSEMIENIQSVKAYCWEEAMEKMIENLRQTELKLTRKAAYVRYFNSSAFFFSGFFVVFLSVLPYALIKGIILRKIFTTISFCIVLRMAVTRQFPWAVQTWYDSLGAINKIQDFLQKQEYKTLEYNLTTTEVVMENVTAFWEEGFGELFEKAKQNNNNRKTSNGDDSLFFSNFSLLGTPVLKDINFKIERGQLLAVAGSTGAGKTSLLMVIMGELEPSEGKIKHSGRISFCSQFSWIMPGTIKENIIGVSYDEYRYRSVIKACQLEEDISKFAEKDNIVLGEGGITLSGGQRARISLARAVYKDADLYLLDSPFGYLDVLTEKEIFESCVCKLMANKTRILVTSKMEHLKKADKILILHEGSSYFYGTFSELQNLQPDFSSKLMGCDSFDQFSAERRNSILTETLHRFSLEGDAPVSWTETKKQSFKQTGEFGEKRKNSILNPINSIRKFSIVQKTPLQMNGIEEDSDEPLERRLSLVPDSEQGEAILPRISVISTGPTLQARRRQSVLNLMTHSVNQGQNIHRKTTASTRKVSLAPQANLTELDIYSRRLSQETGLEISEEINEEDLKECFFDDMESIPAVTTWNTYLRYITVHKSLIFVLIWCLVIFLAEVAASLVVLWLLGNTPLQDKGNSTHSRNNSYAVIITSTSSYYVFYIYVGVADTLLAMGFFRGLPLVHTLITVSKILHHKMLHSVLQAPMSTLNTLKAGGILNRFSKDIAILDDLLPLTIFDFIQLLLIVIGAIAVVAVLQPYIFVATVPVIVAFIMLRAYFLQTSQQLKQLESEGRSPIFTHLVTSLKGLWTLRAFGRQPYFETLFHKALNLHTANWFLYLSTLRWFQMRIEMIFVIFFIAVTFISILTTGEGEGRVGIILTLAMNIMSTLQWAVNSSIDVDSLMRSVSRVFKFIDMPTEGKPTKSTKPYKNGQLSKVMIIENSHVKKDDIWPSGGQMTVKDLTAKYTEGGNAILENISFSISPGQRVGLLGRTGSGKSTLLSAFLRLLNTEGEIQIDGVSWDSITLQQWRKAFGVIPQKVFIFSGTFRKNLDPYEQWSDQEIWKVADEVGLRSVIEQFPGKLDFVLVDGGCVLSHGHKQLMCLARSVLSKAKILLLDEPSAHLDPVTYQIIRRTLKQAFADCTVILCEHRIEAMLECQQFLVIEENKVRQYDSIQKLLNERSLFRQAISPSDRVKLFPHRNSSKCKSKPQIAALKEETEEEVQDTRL

SMILES	Nauc @ 1 μM [1]	Nauc @ 3 μM [2]	Nauc @ 3 μM [3]	Nauc @ 10 μM [4]	Nauc @ 10 μM [5]	Nauc @ 1 μM [6]
Cn1c(NC(=O)[C@H]2[C@H]3CC(F)(F)CN3[C@]3(C(=O)Nc4c(Cl)cc(Cl)cc43)[C@H]2C(=O)O)nc2ccccc21 [Example 139]	+ (NAUC “+” refers to an observed NAUC <140% of positive control)	+ (NAUC “+” refers to an observed NAUC <140% of positive control)				
O=C(Nc1cc(Cl)cc(Cl)c1)C1C(C(F)(F)F)NC2(C(=O)Nc3c(Cl)cc(Cl)cc32)C1C(=O)O (stereo not drawn) [Example 35]			+++ (NAUC “+++” refers to an observed NAUC>170% of positive control)	+++ (NAUC “+++” refers to an observed NAUC>170% of positive control)		
CC(C)N(C(=O)[C@H]1[C@H]2CC(F)(F)CN2[C@]2(C(=O)Nc3c(Cl)cc(Cl)cc32)[C@H]1C(=O)O)c1cc(Cl)cc(Cl)c1 [Example 174]	+++ (NAUC “+++” refers to an observed NAUC>170% of positive control)	+++ (NAUC “+++” refers to an observed NAUC>170% of positive control)			+++ (NAUC “+++” refers to an observed NAUC>170% of positive control)	
O=C(Nc1cc(Cl)cc(Cl)c1)C1C(C(F)(F)c2ccc(C(F)(F)F)cc2)NC2(C(=O)Nc3c(Cl)cc(Cl)cc32)C1C(=O)O (stereo not drawn) [Example 73.c]			+ (NAUC “+” refers to an observed NAUC <140% of positive control)	+++ (NAUC “+++” refers to an observed NAUC>170% of positive control)		+ (NAUC “+” refers to an observed NAUC <140% of positive control)
O=C(Nc1cc2ccccc2cn1)[C@H]1[C@H]2CC(F)(F)CN2[C@]2(C(=O)Nc3c(Cl)cc(Cl)cc32)[C@H]1C(=O)O [Example 119]			+ (NAUC “+” refers to an observed NAUC <140% of positive control)	+ (NAUC “+” refers to an observed NAUC <140% of positive control)		+ (NAUC “+” refers to an observed NAUC <140% of positive control)
CN(C(=O)[C@H]1[C@H]2CCCN2[C@]2(C(=O)Nc3c(Cl)cc(Cl)cc32)[C@H]1C(=O)O)c1cc(Cl)cc(Cl)c1 [Example 266]			+++ (NAUC “+++” refers to an observed NAUC>170% of positive control)	+++ (NAUC “+++” refers to an observed NAUC>170% of positive control)		+ (NAUC “+” refers to an observed NAUC <140% of positive control)
CN(C(=O)[C@@H]1[C@H](C(F)(F)F)NC2(C(=O)Nc3c(Cl)cc(Cl)cc32)[C@@H]1C(=O)O)c1cc(Cl)cc(Cl)c1 (single isomer, unassigned) [Example 269a]			+ (NAUC “+” refers to an observed NAUC <140% of positive control)	+ (NAUC “+” refers to an observed NAUC <140% of positive control)		+ (NAUC “+” refers to an observed NAUC <140% of positive control)
O=C(O)[C@H]1[C@@H](C(=O)N(CC2CCCCC2)c2cc(Cl)cc(Cl)c2)[C@H]2CC(F)(F)CN2[C@]12C(=O)Nc1c(Cl)cc(Cl)cc12 [Example 177]	+++ (NAUC “+++” refers to an observed NAUC>170% of positive control)	++ (NAUC “++” refers to an observed NAUC 170-140% of positive control)			++ (NAUC “++” refers to an observed NAUC 170-140% of positive control)	
O=C(Nc1ccc2scnc2c1)[C@H]1[C@H]2CC(F)(F)CN2[C@]2(C(=O)Nc3c(Cl)cc(Cl)cc32)[C@H]1C(=O)O [Example 128]			+ (NAUC “+” refers to an observed NAUC <140% of positive control)			+ (NAUC “+” refers to an observed NAUC <140% of positive control)
